For orientation: IC50 means the concentration that gives 50% inhibition.

Where only a bound is given, the exact number is not on record here.

For assay [1], the target named is T1, HDAC10 (Homo sapiens, UniProt Q969S8).
T1 sequence (Q969S8 1-669): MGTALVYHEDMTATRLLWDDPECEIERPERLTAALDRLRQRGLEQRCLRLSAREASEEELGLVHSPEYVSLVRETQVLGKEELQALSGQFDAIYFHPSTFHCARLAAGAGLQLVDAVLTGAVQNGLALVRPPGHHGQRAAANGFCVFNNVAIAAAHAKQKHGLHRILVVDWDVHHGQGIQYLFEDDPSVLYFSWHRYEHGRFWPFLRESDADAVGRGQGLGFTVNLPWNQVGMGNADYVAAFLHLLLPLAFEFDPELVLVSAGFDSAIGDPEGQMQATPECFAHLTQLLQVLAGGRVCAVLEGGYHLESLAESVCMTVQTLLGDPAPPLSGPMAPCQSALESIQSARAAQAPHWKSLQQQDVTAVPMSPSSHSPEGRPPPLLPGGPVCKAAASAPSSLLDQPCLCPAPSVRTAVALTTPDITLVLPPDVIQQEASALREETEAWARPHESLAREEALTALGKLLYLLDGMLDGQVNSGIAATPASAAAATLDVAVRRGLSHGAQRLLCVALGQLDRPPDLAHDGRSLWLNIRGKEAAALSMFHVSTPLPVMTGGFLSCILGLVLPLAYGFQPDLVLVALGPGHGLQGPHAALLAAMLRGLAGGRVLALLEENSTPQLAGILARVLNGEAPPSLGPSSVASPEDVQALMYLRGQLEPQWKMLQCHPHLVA
Description: in vitro activity-based HDAC assay. To be noted: human HDAC isoform panel, Table 1. Type of assay: biochemical. On the procedure: (§1) The exemplary compounds of Formula I and structurally related compounds were synthesized to assess their structure-activity relationship. […] The IC50 values for each exemplary compound were used to calculate the selectivity of the exemplary compounds for Formula I to HDAC6. The selectivity of each exemplary compound for HDAC6 was determined from examining the potency of HDAC6 in relation to the highest binding affinity of the other HDAC isoforms tested.

The target of assay [2] is HDAC2 (Homo sapiens, UniProt Q92769). Description: in vitro activity-based HDAC assay. In kind it is biochemical. To be noted: human HDAC isoform panel, Table 1. On the procedure:
as §1

Assay [3] addresses HDAC1 (Homo sapiens, UniProt Q13547). Description: in vitro activity-based HDAC assay. Type of assay: biochemical. The settings on record: human HDAC isoform panel, Table 1. On the procedure:
as §1

The target of assay [4] is HDAC4 (Homo sapiens, UniProt P56524). Description: in vitro activity-based HDAC assay. Type of assay: biochemical. To be noted: human HDAC isoform panel, Table 1. On the procedure:
as §1

Assay [5] concerns the target T2, HDAC7 (Homo sapiens, UniProt Q8WUI4).
T2 sequence (Q8WUI4 1-952): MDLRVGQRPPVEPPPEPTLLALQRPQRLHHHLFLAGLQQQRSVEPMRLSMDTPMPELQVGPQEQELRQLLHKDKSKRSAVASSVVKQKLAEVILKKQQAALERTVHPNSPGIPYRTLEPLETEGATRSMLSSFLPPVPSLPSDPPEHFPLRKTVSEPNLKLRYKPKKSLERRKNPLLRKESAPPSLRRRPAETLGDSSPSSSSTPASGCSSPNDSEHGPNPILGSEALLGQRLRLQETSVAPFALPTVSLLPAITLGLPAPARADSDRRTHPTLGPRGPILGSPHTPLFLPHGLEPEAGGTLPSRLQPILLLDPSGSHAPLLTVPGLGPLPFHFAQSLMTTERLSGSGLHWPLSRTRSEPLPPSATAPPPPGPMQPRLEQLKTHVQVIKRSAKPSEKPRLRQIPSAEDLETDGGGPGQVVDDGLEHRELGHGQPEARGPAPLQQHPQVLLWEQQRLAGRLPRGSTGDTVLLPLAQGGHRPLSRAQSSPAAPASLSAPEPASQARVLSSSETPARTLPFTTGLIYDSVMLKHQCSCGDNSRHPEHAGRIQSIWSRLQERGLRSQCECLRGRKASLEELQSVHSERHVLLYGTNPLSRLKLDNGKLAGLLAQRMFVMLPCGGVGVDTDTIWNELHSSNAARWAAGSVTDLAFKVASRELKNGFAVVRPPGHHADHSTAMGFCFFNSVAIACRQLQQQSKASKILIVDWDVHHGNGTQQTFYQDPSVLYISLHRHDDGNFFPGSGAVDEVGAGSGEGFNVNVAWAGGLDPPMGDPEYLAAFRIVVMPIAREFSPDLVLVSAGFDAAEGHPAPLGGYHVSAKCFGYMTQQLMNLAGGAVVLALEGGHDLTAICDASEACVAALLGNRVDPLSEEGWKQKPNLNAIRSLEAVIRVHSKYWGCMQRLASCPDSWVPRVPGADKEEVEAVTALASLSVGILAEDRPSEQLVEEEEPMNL
The assay can be described thus: in vitro activity-based HDAC assay. In kind it is biochemical. The settings on record: human HDAC isoform panel, Table 1. The method, then: as §1

Assay [6] addresses HDAC9 (Homo sapiens, UniProt Q9UKV0). Description: in vitro activity-based HDAC assay. In kind it is biochemical. To be noted: human HDAC isoform panel, Table 1. On the procedure: as §1
Assay [7] addresses HDAC5 (Homo sapiens, UniProt Q9UQL6). Description: in vitro activity-based HDAC assay. Type of assay: biochemical. The settings on record: human HDAC isoform panel, Table 1. The method, then: as §1
In assay [8] the test system is MM.1S. The assay can be described thus: Cytotoxicity in cell lines. In kind it is cell-based. To be noted: Homo sapiens, MM1.S; Table 4. On the procedure: (§2) The cytotoxicity of exemplary compounds of the application was tested in multiple cell lines including MV-4-11, MOLM-13, MCF-7, MRC9, K562 and MM.1S. The therapeutic index was evaluated by determining the toxicity of the exemplary compounds in healthy cell lines including fibroblasts and HUVEC.

In assay [9] the test system is MV-4-11. Description: Cytotoxicity in cell lines. Type of assay: cell-based. To be noted: Homo sapiens, MV4-11, Table 4; read-out: IC50 MV-411. The method, then:
as §2

For assay [10], the system named is MRC9. The assay can be described thus: Cytotoxicity in cell lines. In kind it is cell-based. To be noted: Table 4. The method, then: as §2
The subject of assay [11] is MOLM-13. The assay can be described thus: Cytotoxicity in cell lines. In kind it is cell-based. To be noted: Homo sapiens, MOLM-13; Table 4; read-out: IC50 MOLM-13. On the procedure:
as §2

In assay [12] the test system is MCF-7. The assay can be described thus: Cytotoxicity in cell lines. Type of assay: cell-based. To be noted: Homo sapiens, MCF7; Table 4. The method, then:
as §2

HDAC5, sequence (Q9UQL6 whole entry, canonical isoform): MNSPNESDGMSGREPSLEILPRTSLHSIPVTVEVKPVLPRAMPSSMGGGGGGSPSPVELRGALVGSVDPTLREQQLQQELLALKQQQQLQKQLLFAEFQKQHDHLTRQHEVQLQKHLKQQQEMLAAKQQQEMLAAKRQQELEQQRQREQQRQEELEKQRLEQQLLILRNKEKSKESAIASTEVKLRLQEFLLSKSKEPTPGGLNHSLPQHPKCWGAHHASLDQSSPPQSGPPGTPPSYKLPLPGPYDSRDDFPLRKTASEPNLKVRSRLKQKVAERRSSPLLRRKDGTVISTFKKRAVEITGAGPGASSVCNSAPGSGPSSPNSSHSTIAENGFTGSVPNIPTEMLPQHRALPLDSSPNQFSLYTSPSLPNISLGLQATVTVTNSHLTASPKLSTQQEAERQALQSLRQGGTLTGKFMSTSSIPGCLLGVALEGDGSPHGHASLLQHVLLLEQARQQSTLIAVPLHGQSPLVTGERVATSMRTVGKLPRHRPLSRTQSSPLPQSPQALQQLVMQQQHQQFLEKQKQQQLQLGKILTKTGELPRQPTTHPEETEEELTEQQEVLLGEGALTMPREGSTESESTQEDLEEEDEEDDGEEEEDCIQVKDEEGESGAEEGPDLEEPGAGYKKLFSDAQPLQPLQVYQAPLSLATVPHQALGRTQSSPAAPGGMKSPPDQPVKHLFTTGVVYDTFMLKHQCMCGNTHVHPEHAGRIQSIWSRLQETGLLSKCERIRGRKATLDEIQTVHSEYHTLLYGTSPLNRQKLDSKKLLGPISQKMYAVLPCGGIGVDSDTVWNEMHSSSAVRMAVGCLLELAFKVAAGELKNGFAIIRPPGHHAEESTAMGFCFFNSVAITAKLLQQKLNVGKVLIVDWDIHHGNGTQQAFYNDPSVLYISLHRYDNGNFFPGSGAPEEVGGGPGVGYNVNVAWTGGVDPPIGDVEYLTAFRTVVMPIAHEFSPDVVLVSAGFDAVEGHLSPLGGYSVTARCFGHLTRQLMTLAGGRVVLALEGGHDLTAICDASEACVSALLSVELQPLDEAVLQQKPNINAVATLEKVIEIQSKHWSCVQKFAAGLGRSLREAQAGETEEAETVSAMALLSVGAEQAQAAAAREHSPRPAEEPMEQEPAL
HDAC4, sequence (P56524 whole entry, canonical isoform): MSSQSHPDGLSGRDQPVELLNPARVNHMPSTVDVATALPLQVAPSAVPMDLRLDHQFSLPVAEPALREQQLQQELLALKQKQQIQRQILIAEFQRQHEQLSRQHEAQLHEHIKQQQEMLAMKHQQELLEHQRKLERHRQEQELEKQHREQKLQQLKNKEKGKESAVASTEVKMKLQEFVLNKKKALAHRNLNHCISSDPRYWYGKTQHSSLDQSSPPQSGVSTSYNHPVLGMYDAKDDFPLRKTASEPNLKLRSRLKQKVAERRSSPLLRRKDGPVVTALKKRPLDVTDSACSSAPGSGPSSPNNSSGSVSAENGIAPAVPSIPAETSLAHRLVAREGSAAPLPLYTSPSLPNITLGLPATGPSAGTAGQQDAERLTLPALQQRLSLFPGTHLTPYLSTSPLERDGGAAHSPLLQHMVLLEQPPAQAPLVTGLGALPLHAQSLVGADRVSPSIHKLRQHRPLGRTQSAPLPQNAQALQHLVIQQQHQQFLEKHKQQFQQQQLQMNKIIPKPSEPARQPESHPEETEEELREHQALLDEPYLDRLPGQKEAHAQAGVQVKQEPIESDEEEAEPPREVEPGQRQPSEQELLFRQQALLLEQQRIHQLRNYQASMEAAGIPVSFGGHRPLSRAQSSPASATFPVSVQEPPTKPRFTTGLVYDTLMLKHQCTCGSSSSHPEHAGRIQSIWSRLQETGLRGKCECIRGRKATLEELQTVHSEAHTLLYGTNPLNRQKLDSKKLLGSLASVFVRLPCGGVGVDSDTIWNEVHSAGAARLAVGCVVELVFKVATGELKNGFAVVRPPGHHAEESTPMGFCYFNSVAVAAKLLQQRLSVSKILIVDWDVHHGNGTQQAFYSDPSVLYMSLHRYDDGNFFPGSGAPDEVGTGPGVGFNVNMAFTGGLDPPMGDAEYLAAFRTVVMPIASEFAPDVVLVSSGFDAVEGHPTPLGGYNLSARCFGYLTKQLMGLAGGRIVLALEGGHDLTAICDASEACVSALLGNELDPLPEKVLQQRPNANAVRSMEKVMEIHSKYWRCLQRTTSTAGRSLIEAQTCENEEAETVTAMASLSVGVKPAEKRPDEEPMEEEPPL
HDAC1, sequence (Q13547 whole entry, canonical isoform): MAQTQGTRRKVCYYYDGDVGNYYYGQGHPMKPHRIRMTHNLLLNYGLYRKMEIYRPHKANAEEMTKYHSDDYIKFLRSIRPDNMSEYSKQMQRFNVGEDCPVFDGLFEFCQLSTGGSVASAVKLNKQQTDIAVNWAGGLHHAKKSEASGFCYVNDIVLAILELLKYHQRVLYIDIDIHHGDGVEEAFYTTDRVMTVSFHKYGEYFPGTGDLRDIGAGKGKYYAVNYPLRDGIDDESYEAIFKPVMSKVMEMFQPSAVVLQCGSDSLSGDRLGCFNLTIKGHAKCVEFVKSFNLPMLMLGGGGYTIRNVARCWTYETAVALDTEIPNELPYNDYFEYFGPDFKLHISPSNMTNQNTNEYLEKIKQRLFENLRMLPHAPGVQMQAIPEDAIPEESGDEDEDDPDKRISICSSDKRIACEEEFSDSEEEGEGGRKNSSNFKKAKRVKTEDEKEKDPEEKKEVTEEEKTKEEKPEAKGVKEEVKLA
HDAC9, sequence (Q9UKV0 whole entry, canonical isoform): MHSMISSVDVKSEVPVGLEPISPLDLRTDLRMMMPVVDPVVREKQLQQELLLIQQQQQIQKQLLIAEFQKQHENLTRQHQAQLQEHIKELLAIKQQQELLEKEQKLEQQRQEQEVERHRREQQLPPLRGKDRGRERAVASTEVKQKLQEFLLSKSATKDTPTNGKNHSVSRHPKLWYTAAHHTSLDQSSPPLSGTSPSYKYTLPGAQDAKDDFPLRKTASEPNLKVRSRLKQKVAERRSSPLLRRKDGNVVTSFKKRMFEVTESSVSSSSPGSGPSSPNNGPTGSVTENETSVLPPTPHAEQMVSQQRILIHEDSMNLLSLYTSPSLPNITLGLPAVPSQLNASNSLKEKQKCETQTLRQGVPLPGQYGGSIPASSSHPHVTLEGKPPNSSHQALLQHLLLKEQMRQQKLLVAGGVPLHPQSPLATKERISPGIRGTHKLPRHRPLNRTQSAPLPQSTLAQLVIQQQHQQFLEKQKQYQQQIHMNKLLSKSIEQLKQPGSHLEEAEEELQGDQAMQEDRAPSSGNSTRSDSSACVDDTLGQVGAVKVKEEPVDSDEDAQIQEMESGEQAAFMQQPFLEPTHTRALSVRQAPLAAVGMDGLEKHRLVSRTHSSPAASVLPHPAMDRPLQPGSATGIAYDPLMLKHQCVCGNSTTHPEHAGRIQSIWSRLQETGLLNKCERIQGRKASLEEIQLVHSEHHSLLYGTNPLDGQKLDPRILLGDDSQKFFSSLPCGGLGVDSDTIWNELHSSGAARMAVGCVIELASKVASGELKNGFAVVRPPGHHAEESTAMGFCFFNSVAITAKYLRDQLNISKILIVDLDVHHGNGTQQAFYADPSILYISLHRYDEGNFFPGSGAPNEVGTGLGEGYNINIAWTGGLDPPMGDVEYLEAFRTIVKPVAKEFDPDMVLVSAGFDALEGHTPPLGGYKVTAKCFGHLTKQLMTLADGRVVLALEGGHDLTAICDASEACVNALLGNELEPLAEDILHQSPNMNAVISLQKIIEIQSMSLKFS
HDAC2, sequence (Q92769 whole entry, canonical isoform): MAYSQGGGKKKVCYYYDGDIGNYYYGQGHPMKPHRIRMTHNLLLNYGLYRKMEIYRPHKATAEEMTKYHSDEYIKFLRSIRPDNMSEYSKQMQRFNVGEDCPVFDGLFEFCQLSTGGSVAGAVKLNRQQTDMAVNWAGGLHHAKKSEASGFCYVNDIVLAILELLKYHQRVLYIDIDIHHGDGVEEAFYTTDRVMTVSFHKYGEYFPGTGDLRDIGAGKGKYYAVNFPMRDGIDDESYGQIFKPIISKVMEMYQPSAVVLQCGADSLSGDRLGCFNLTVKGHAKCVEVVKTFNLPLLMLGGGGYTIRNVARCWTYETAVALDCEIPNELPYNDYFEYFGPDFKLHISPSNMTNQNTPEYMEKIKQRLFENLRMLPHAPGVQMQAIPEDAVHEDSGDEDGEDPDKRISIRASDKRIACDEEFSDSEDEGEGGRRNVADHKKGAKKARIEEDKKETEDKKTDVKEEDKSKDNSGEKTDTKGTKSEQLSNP

`CC(C)N(Cc1ccc(C(=O)NO)cc1F)S(=O)(=O)c1cc(F)c(F)c(F)c1F` [Compound I-50, 3-fluoro-N-hydroxy-4-(((2,3,4,5-tetrafluoro-N-isopropylphenyl)sulfonamido)methyl)benzamide]: the IC50 in [1], in assay [2], in [3], in [4], in [5] and in [6] was above 1000 nM each time. Moreover, the IC50 in [7] is above 1000 nM; in assay [8], 1200 nM; in assay [9], 1600 nM; in [10], above 50000 nM.
For the compound `O=C(NO)c1ccc(CN(Cc2cccnc2)S(=O)(=O)c2cc(F)c(F)c(F)c2F)c(C(F)(F)F)c1` [Compound I-31, N-hydroxy-4-((2,3,4,5-tetrafluoro-N-(pyridin-3-ylmethyl)phenylsulfonamido)methyl)-3-(trifluoromethyl)benzamide], the IC50 came out at 3400 nM in assay [9], 1600 nM in [11] and 5000 nM in assay [12].

These data come from US20220169598A1, “HALOGENATED PHENYLSULFONAMIDE HYDROXAMIC ACID COMPOUNDS, COMPOSITIONS AND USES THEREOF AS SELECTIVE HDAC6 INHIBITORS” (2681603 ONTARIO INC., priority 2019, published 2022).
